We go through 10 molecules from ChEMBL document CHEMBL1201862, “PubChem BioAssay data set” (2004).

Test systems include IGROV-1; NCI-H522; SF-539; TK-10; SK-MEL-28; NCI-H226; SK-OV-3; CAKI-1; HCT-15; MDA-MB-435; SN12C; LOX IMVI; OVCAR-8; MDA-MB-231; T47D; COLO 205; ACHN; MCF7; NCI-H460; HL-60.
Common to all, as to experiment: NCI anticancer screen, dose series, 48 h

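Exposure lasted 48 hours, with cells grown in 96-well plates and compounds tested at five concentrations. GI50 is the concentration that inhibits growth by half.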 Calls of active or inactive are those of the source. Rule as the data show it: active = GI50 up to about 1.1 µM and inactive = higher.

In the case of `NCCSCCc1ccccc1`, the GI50 in the assay on IGROV-1 was > 100 µM (inactive); with NCI-H522, 58.6 µM (inactive); in the assay on SF-539, > 100 µM (inactive); in the assay with TK-10, > 100 µM (inactive); in the assay with SK-MEL-28 it was > 100 µM (inactive); with NCI-H226, > 100 µM (inactive). Also, the GI50 is > 100 µM (inactive) with SK-OV-3; > 100 µM (inactive) in the assay on CAKI-1; above 100 µM with HCT-15; > 100 µM (inactive) with MDA-MB-435; > 100 µM (inactive) in the assay with SN12C; > 100 µM (inactive) in the assay with LOX IMVI. The GI50 with OVCAR-8 is > 100 µM (inactive); with MDA-MB-231, > 100 µM (inactive); with T47D, 55.1 µM (inactive); with COLO 205 it was > 100 µM (inactive); with ACHN, > 100 µM (inactive); with MCF7, > 100 µM (inactive). In the assay on NCI-H460, the GI50 was > 100 µM (inactive).

`O=[N+]([O-])c1ccc2[nH]c(-c3ccc(Cl)cc3)nc2c1`: the GI50 in the assay with IGROV-1 was 31 µM (inactive); in the assay on NCI-H522, 12.6 µM (inactive); in the assay with SF-539 it was 21.1 µM (inactive); in the assay on TK-10, 32.6 µM (inactive); in the assay with SK-MEL-28, 39 µM (inactive); in the assay on NCI-H226 it was 22.3 µM (inactive). The GI50 with SK-OV-3 is 24 µM (inactive); with CAKI-1 it was 31.1 µM (inactive); in the assay on HCT-15, 14.9 µM; with MDA-MB-435, 23.6 µM (inactive); in the assay with SN12C it was 29.7 µM (inactive); with LOX IMVI, 18.1 µM (inactive). The GI50 with OVCAR-8 was 30.1 µM (inactive); with MDA-MB-231, 15.5 µM (inactive); in the assay with T47D it was 24.6 µM (inactive); in the assay with COLO 205, 16.7 µM (inactive); in the assay with ACHN it was 26.8 µM (inactive); with MCF7 it was 18.7 µM (inactive). Besides, the GI50 in the assay on NCI-H460 was 19.5 µM (inactive).

Turning to `CCOC(=O)NC(=S)NN(C)C1=NCC(C)(C)S1`, the GI50 in the assay on HL-60, in the assay on IGROV-1, with NCI-H522, with SF-539, with TK-10 and in the assay on SK-MEL-28 was > 100 µM (inactive) throughout. For the same molecule, the GI50 in the assay with SK-OV-3 is > 100 µM (inactive); in the assay with CAKI-1 it was > 100 µM (inactive); in the assay with HCT-15 it was above 100 µM; in the assay on MDA-MB-435 it was > 100 µM (inactive); in the assay on SN12C, > 100 µM (inactive); in the assay with LOX IMVI, > 100 µM (inactive). Moreover, the GI50 in the assay with MDA-MB-231, in the assay with T47D, in the assay on COLO 205, in the assay on ACHN, with MCF7 and with NCI-H460 was > 100 µM (inactive) in each case.

Take `O=C1CSC(c2ccc(Cl)cc2)N1c1ccc(-c2ccc(-n3c(-c4ccccc4)nc4ccccc4c3=O)cc2)cc1` (stereo not drawn): the GI50 with HL-60 was > 100 µM (inactive); in the assay on IGROV-1 it was 19 µM (inactive); with NCI-H522 it was 25.2 µM (inactive); in the assay on SF-539 it was 24.1 µM (inactive); with TK-10, 69 µM (inactive); with SK-MEL-28, 41.1 µM (inactive). For the same molecule, the GI50 with SK-OV-3 was 31.1 µM (inactive); in the assay on CAKI-1, 29.4 µM (inactive); in the assay with HCT-15 it was 33.2 µM; in the assay on MDA-MB-435 it was 27.4 µM (inactive); with SN12C, 68.1 µM (inactive); in the assay on LOX IMVI, 17.7 µM (inactive). Also, the GI50 was 54.8 µM (inactive) with OVCAR-8; 38.8 µM (inactive) in the assay with MDA-MB-231; 13.8 µM (inactive) in the assay with T47D; 27.8 µM (inactive) in the assay on COLO 205; 58.6 µM (inactive) in the assay with ACHN; 30.7 µM (inactive) in the assay with MCF7. Moreover, the GI50 with NCI-H460 was 67.1 µM (inactive).

As to `CC1OC(OC2C(OC(=O)[C@]34CCC(C)(C)C[C@H]3C3=CC[C@@H]5[C@@]6(C)CC[C@H](OC7OC(C(=O)O)C(O)C(O)C7O)C(C)(C)[C@@H]6CC[C@@]5(C)[C@]3(C)C[C@H]4O)OCC(O)C2O)C(O)C(O)C1OC1OCC(OC2OCC(O)C(O)C2O)C(O)C1O` (stereo partly drawn), the GI50 in the assay on HL-60 is 3.96 µM (inactive); with IGROV-1 it was 12.8 µM (inactive); with NCI-H522, 4.94 µM (inactive); in the assay with SK-MEL-28 it was 3.44 µM (inactive); in the assay on NCI-H226 it was 6.92 µM (inactive); with SK-OV-3 it was 13.8 µM (inactive). Moreover, the GI50 in the assay on CAKI-1 was 9.73 µM (inactive); with HCT-15 it was 14.7 µM; in the assay with MDA-MB-435 it was 4.59 µM (inactive); in the assay with SN12C, 2.42 µM (inactive); in the assay on LOX IMVI, 11.9 µM (inactive); with OVCAR-8, 15.9 µM (inactive). Also, the GI50 is 3.45 µM (inactive) with MDA-MB-231; 7.16 µM (inactive) with T47D; 1.89 µM (inactive) with COLO 205; 4.72 µM (inactive) with ACHN; 5.07 µM (inactive) with MCF7; 16.4 µM (inactive) in the assay with NCI-H460.

Take `CC(C)CCC[C@@H](C)[C@H]1CC[C@H]2C3=C[C@H](OS(=O)(=O)O)[C@@]4(O)C[C@@H](O)CC[C@]4(C)[C@@]3(O)CC[C@]12C`: the GI50 in the assay with IGROV-1 was > 100 µM (inactive); in the assay with NCI-H522, > 100 µM (inactive); in the assay on SF-539, > 100 µM (inactive); with TK-10, > 100 µM (inactive); in the assay with SK-MEL-28, > 100 µM (inactive); in the assay with NCI-H226 it was 60 µM (inactive). Further, the GI50 in the assay on SK-OV-3 is > 100 µM (inactive); in the assay on CAKI-1 it was > 100 µM (inactive); with HCT-15, above 100 µM; in the assay with MDA-MB-435, > 100 µM (inactive); with SN12C it was > 100 µM (inactive); in the assay on LOX IMVI, > 100 µM (inactive). In addition, the GI50 in the assay with OVCAR-8 was > 100 µM (inactive); with MDA-MB-231 it was > 100 µM (inactive); in the assay with T47D it was 83.6 µM (inactive); in the assay with COLO 205, > 100 µM (inactive); with ACHN, > 100 µM (inactive); in the assay with MCF7 it was > 100 µM (inactive). The GI50 in the assay with NCI-H460 was > 100 µM (inactive).

Take `CC(=O)OCC1OC(n2ncc(=O)[nH]c2=O)C(OC(C)=O)C1OC(C)=O` (stereo not drawn): the GI50 in the assay on IGROV-1 is 17.8 µM (inactive); with NCI-H522, 19.1 µM (inactive); with SF-539 it was 30.3 µM (inactive); with TK-10, > 100 µM (inactive); in the assay with SK-MEL-28, > 100 µM (inactive); in the assay with NCI-H226, 15.3 µM (inactive). Further, the GI50 with SK-OV-3 is 61.2 µM (inactive); in the assay on CAKI-1, 9.4 µM (inactive); with HCT-15, 3.41 µM; in the assay on MDA-MB-435 it was 32.4 µM (inactive); in the assay with SN12C it was 34.4 µM (inactive); in the assay on LOX IMVI, 6.3 µM (inactive). Moreover, the GI50 was 14.7 µM (inactive) with OVCAR-8; > 10 µM (inactive) in the assay on MDA-MB-231; > 100 µM (inactive) with T47D; 11.3 µM (inactive) in the assay with COLO 205; 4.9 µM (inactive) in the assay with ACHN; 15.6 µM (inactive) in the assay with MCF7. The GI50 in the assay on NCI-H460 is 1.17 µM (inactive).

Turning to `O=C(Nc1sccc1S(=O)(=O)c1ccc(Cl)cc1)C(F)(F)F`, the GI50 was 32.1 µM (inactive) in the assay on IGROV-1; 8.63 µM (inactive) in the assay with NCI-H522; 26.1 µM (inactive) with SF-539; 78.7 µM (inactive) in the assay on TK-10; 74.3 µM (inactive) with SK-MEL-28; 29.6 µM (inactive) in the assay with NCI-H226. For the same molecule, the GI50 with SK-OV-3 is 30.3 µM (inactive); with CAKI-1, 24.9 µM (inactive); in the assay on HCT-15, 29.5 µM; in the assay with MDA-MB-435, 39.1 µM (inactive); with SN12C, 10.3 µM (inactive); in the assay on LOX IMVI, 31 µM (inactive). The GI50 in the assay on OVCAR-8 was 24.6 µM (inactive); in the assay with MDA-MB-231, 13.7 µM (inactive); in the assay with T47D, 6.43 µM (inactive); in the assay on COLO 205, 17.1 µM (inactive); in the assay on ACHN it was 43 µM (inactive); with MCF7 it was 28.8 µM (inactive). Besides, the GI50 in the assay on NCI-H460 is 27.4 µM (inactive).

As to `OCC1C(OCc2ccccc2)C(OCc2ccccc2)C(OCc2ccccc2)CN1Cc1ccccc1` (stereo not drawn), the GI50 in the assay with IGROV-1 is 35.5 µM (inactive); with NCI-H522, 27.4 µM (inactive); in the assay with SF-539, 73.5 µM (inactive); with TK-10, 42.8 µM (inactive); with SK-MEL-28, 88.9 µM (inactive); in the assay with NCI-H226 it was 33.8 µM (inactive). Besides, the GI50 is > 100 µM (inactive) in the assay with SK-OV-3; > 100 µM (inactive) in the assay on CAKI-1; 30.5 µM with HCT-15; 24.8 µM (inactive) in the assay with MDA-MB-435; 14.5 µM (inactive) in the assay with SN12C; 31.3 µM (inactive) in the assay on LOX IMVI. Further, the GI50 in the assay with OVCAR-8 is 29.9 µM (inactive); with MDA-MB-231, 21.3 µM (inactive); with T47D, 22.6 µM (inactive); with COLO 205 it was 14.3 µM (inactive); in the assay with ACHN it was 3.38 µM (inactive); in the assay with MCF7, 14.2 µM (inactive). In the assay on NCI-H460, the GI50 was 14.5 µM (inactive).

As for `NC(=O)c1cn(C2OC(CO)C(O)C2O)c2nc[n+]([O-])c(N)c12` (stereo not drawn), the GI50 in the assay on IGROV-1 was 1.05 µM (active); in the assay on NCI-H522, 1.36 µM (inactive); in the assay on SF-539, 0.321 µM (active); in the assay on TK-10 it was 0.0324 µM (active); in the assay on SK-MEL-28, 0.341 µM (active); in the assay on NCI-H226, 0.211 µM (active). Further, the GI50 is 0.0906 µM (active) in the assay on SK-OV-3; 0.0497 µM (active) in the assay with CAKI-1; 0.0735 µM in the assay on HCT-15; 0.167 µM (active) with MDA-MB-435; 0.0912 µM (active) in the assay with SN12C; 0.104 µM (active) in the assay with LOX IMVI. Further, the GI50 is 0.094 µM (active) with OVCAR-8; 0.342 µM (active) in the assay with MDA-MB-231; 0.103 µM (active) in the assay with T47D; 0.201 µM (active) in the assay on COLO 205; 0.0351 µM (active) in the assay on ACHN; 0.2 µM (active) in the assay with MCF7. In addition, in the assay on NCI-H460, the GI50 is 0.446 µM (active).
